Here are results for 85 compounds from PubChem BioAssay AID651703 (Broad Institute, 2012).

A value given as a limit tells only on which side of the number the result lay.

This assay addresses Transforming acidic coiled-coil-containing protein 3 (Homo sapiens) (UniProt Q9Y6A5). The assay is described as follows: ARNT/TACC3 interaction disruptors, potency, confirmation, biochemical, AlphaScreen, cherry-picked samples (AID 651703).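 Note: TACC3 partner is the GST-tagged E629A mutant dimer; hits lower the signal meaning they disrupt ARNT binding to TACC3.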 As to conditions: AlphaScreen His-ARNT PAS-B / GST-TACC3 binding, luminescence. Background: In Alpha technology, singlet oxygen from a donor bead excites a nearby acceptor bead.
On to `CCOc1ccccc1NC(=O)CN(c1ccc(OC)cc1)S(=O)(=O)c1c(C)[nH]c(=O)[nH]c1=O`, for which the AC50 (commonly the midpoint of the concentration-response curve, whichever way the signal moves) is 10.5 µM.
For `c1ccc(-c2nn[nH]n2)nc1` the value was 5.22 µM.
In the case of `O=C(Nc1nc(-c2ccccn2)cs1)c1ccc(F)c(S(=O)(=O)N2CCOCC2)c1` it was 2.76 µM; in that of `Cc1nnc(NC(=O)c2ccc(S(=O)(=O)N3CCCCC3C)cc2)o1` (stereo not given), 52 µM; in that of `O=S(=O)(c1cccc2cccnc12)N1CCN(Cc2ccc(OCCO)cc2)CC1`, 48.2 µM.
Turning to `Cn1c(-c2ccccc2)cnc1Nc1nc(-c2ccccn2)nnc1-c1ccccc1`, the AC50 is 2.26 µM.
In the case of `CC(=O)NC(C)c1cc(Cl)c2cccnc2c1O` (stereo not given) it was 6.14 µM; in that of `O=C(COc1ccccc1F)Nc1nc(-c2ccccn2)cs1`, 8.38 µM.
Regarding `N#Cc1ccc(C(=O)Nc2nnc(-c3ccco3)o2)cc1`, the AC50 was 27.7 µM.
Turning to `O=C(Nc1ccccc1C(F)(F)F)c1ncn[nH]1`, the AC50 was 13.1 µM.
For `Cc1ccsc1C(=O)Nc1nnc(-c2ccco2)o1` the value was 9.04 µM; for `Fc1ccc(-c2ccc(CNCc3ccccn3)o2)cc1Cl`, 17.5 µM; for `O=C(NC[C@@H]1[C@H](c2ccccc2)[C@H](CO)N1Cc1ccccn1)C1CCCC1`, 40.7 µM.
On to `O=C(CSc1ccc2nnc(-c3ccccn3)n2n1)Nc1ccccc1F`, for which the AC50 was 28.6 µM.
As to `Oc1ccc(/C=N/Nc2ncc(Br)cn2)c(O)c1`, the AC50 was 6.19 µM.
In the case of `CCOC(=O)Cc1nnc(NC(=O)c2ncn[nH]2)s1` it was 23.2 µM.
For `COc1ccc(NC(=O)Nc2ccc3c(c2)CC(=O)N([C@H](C)CO)C[C@H](C)[C@@H](CN(C)Cc2ccc(Oc4ccccc4)cc2)O3)cc1` the value was 23.6 µM; for `CN(C)C(=O)CSc1cccc2cccnc12`, 4.27 µM; for `O=c1cc(C(F)(F)F)nc(-n2[nH]c3c(c2=O)CCCC3)[nH]1`, 28 µM.
In the case of `O=C(N/N=C/c1cc(Cl)ccc1O)c1cccnc1` it was 7.68 µM; in that of `O=C(N[C@@H]1CC[C@H](CCn2cc(-c3ccccn3)nn2)O[C@H]1CO)c1cccnc1`, 12.2 µM.
For the compound `COc1ccc(C)cc1NC(=O)CSc1ccc(-c2ccccn2)nn1`, the AC50 is 3.11 µM.
For `c1ccc(-c2nnc(-c3ccccn3)nc2NCCN2CCOCC2)cc1` the value was 0.593 µM.
In the case of `C[C@@H]1CN([C@H](C)CO)S(=O)(=O)c2ccc(C3=CCCC3)cc2O[C@H]1CN(C)Cc1ccccn1` it was 70 µM.
Turning to `Nc1nc(-c2ccccn2)nc(N)c1Cc1ccccc1F`, the AC50 is 3.39 µM.
`Cc1cc(C)c2nc(C)cc(N/N=C/c3ccc(O)cc3)c2c1`: the AC50 was 37.3 µM.
For `O=C(Nc1nc(-c2ccccn2)cs1)c1ccc([N+](=O)[O-])o1` the value was 11.1 µM.
Turning to `O=S1(=O)N=C(N/N=C/c2ccccn2)c2ccccc21`, the AC50 was 4.02 µM.
In the case of `C/C=C/c1ccc([C@@H]2[C@H](CO)N(Cc3ccccn3)[C@H]2CNC(C)=O)cc1` it was 47.8 µM.
For `CCC(=O)NC(C)c1cc(Cl)c2cccnc2c1O` (stereo not given) the value was 4.72 µM.
In the case of `O=S(=O)(N[C@H]1CC[C@H](CCn2cc(-c3ccccn3)nn2)O[C@@H]1CO)c1cccc(F)c1` it was 10.7 µM; in that of `CCNC(=O)C(=O)N/N=C/c1cc([N+](=O)[O-])ccc1O`, 2.62 µM.
For `Nc1nnc2c(n1)CCCC2`, the half-maximal activity concentration (AC50) is 4.63 µM.
For `O=C(Nc1nc(-c2ccccn2)cs1)c1cc(Cl)ccc1[N+](=O)[O-]` the value was 3.07 µM; for `Cc1c(NC(=O)CSc2cccc3cccnc23)c(=O)n(-c2ccccc2)n1C`, 3.6 µM.
In the case of `Cc1ccc(C)c(CSc2ccc3nnc(-c4ccccn4)n3n2)c1` it was 23.3 µM; in that of `O=C(N[C@H]1CC[C@@H](CCn2cc(-c3ccccn3)nn2)O[C@@H]1CO)c1ccccc1`, 15.5 µM.
For `Cc1cccc(CSc2cccc3cccnc23)c1` the value was 1.79 µM; for `CCOc1ncccc1C(=O)OCC(=O)Nc1nnc(-c2ccccc2)o1`, 21.6 µM; for `Cc1ccc(S(=O)(=O)/N=C2\C=C(Nc3ccc(O)cc3)C(=O)c3ccccc32)cc1`, 3.43 µM.
`Nc1nc(CN2CCN(Cc3ccccc3)CC2)nc(Nc2ccc3c(c2)OCCO3)n1`: the AC50 is 65.8 µM.
In the case of `OCCN1CCN(Cc2cc(Cl)c3cccnc3c2O)CC1`, the AC50 was 1.34 µM.
On to `O=C(CCS(=O)(=O)c1ccccc1)Nc1nc(-c2ccccn2)cs1`, for which the AC50 is 11.2 µM.
In the case of `N#Cc1ccc(OCC(=O)NCCCn2ccnc2)cc1` it was 8.65 µM.
On to `O=C(Nc1nnc(SCc2ccc(F)cc2)s1)c1ccccn1`, for which the AC50 is 7.06 µM.
On to `Cc1cccc(C(=O)Nc2nnc(C3=COCCO3)o2)c1`, for which the AC50 is 12.6 µM.
For `CN1CCC(=O)N(CCOc2ccccc2)CC1` the value was 4.44 µM; for `c1ccc(-c2nnc(-c3ccccn3)nc2NCC2CC2)cc1`, less than 0.5 µM; for `O=C(Nc1nnc(C2=COCCO2)o1)c1ccc([N+](=O)[O-])cc1`, 34.3 µM.
In the case of `Cc1c(Cl)cccc1-c1ccc(CNCc2ccccn2)o1` it was 35.2 µM; in that of `O=C(CSc1n[nH]c(=O)[nH]c1=O)N/N=C/c1ccccc1O`, 43 µM.
For `O=S(=O)(c1ccccc1)N1C[C@H]2[C@@H](c3ccccc31)[C@@H](CO)N2Cc1ccccn1` the value was 52.3 µM; for `Cc1ccc(C)c(S(=O)(=O)N2CCCOC2CNC(=O)C(=O)NCCCn2ccnc2)c1` (stereo not given), 4.16 µM; for `COc1ccc(NC(=O)N[C@@H]2CC[C@@H](CCn3cc(-c4ccccn4)nn3)O[C@H]2CO)cc1`, 28.6 µM.
`O=C(CNCc1ccccn1)Nc1cc(C(F)(F)F)ccc1N1CCOCC1`: the AC50 is 17.4 µM.
In the case of `COc1c(O)cccc1/C=N/NC(=O)Cn1ccnc1C` it was 8.02 µM.
In the case of `CC(C)COCc1ccc(O)c2ncccc12` it was 3.53 µM; in that of `COc1cc(NS(=O)(=O)c2ccc(Nc3nc(-c4ccccn4)cs3)cc2)nc(OC)n1`, 17.3 µM; in that of `COc1ccc([Si](C)(C)[C@@H]2[C@@H](CCO)O[C@]3(C(=O)N4c5c(cc(OC)cc53)C(C)=CC4(C)C)[C@H]2C)cc1`, 11.3 µM.
As for `O=S(=O)(N[C@@H]1CC[C@H](CCn2cc(-c3ccccn3)nn2)O[C@@H]1CO)c1cccc(Cl)c1`, the AC50 was 16.7 µM.
For `COC(=O)C1=COC(C)C2CN3CCc4c([nH]c5cc(OC)c(OC)cc45)C3CC12` (stereo not given) the value was 67.6 µM; for `Cc1cccc(NC(=O)CSc2cccc3cccnc23)c1C`, 33.7 µM; for `c1cncc(-c2nc(NCCCn3ccnc3)c3ccccc3n2)c1`, 16.2 µM.
For `COc1cc(OC)c2c(-c3ccccc3)cc(=O)oc2c1C(CCN1CCCCC1)c1ccc(N(C)C)cc1` (stereo not given) the value was 7.83 µM.
For `Cc1ccccc1CSc1nnc(-c2ccccn2)n1N` the value was 31.7 µM; for `COCc1cc(CN2CCN(C)CC2)c(O)c2ncccc12`, 1.14 µM; for `CC(=O)NC(c1ccco1)c1cc(F)c2cccnc2c1O` (stereo not given), 5.76 µM.
With `Cc1cc(=O)n2c3c(c4c(cc13)c(CN(C)C)cc(=O)n4C)OC2`, the AC50 is 17.7 µM.
In the case of `Cc1ccc(Nc2c(-c3ccccn3)nc3cc(C)ccn23)cc1`, the AC50 is 3.02 µM.
With `Cc1ccccc1C(=O)Nc1nnc(-c2ccco2)o1`, the concentration at half-maximal activity (AC50) was 43.1 µM.
For `Cc1ccc(Nc2nc(-c3ccccn3)nnc2-c2ccccc2)cn1` the value was less than 0.5 µM; for `CCN(CC)C(=O)c1sc2nc(-c3ccccn3)[nH]c(=O)c2c1C`, 10.5 µM; for `CCOc1cc2c(C#N)c(N3CCOCC3)nc(N)c2c(N)n1`, 30.4 µM.
For `C[C@@H](Nc1nc(-c2ccccn2)nnc1-c1ccccc1)C1CCCCC1`, the half-maximal activity concentration (AC50) was 2.26 µM.
For `O=C(Nc1ccc(Cl)cc1)O/N=C(\c1ccccc1)c1ccccn1` the value was 17.6 µM; for `O=[N+]([O-])c1cc(Cl)cc(/C=N\Nc2ccccn2)c1O`, 5.13 µM; for `COc1cc(OC)c(C(=O)OCC(=O)Nc2nnc(-c3ccccc3)o2)cc1OC`, 19 µM.
For `O=Nc1ccc(O)c2ncccc12` the value was 13.6 µM; for `N#CC1=C(N)Oc2c(ccc3cccnc23)C1c1ccncc1` (stereo not given), 26.9 µM; for `CCC(=O)NC(c1ccc(N(C)C)cc1)c1c(O)ccc2ccccc12` (stereo not given), 35.5 µM.
In the case of `CC(C)[C@H](NC(=O)c1ccccc1Cl)C(=O)Nc1nc(-c2ccccn2)cs1` it was 6.72 µM; in that of `COc1ccc(C(=O)Nc2nnc(C3=COCCO3)o2)cc1`, 24.9 µM.
For the compound `CCO/C=C1/C(=O)N(Cc2ccccc2)C(=O)c2ccccc21`, the AC50 is 29 µM.
In the case of `C#CCOCCOCCOCCNc1nc(N2CCN(C(=O)[C@H](CC(N)=O)n3cc([C@@H](N)CC(N)=O)nn3)CC2)nc(N2CCN(C(=O)[C@H](CC(N)=O)n3cc([C@@H](N)CC(N)=O)nn3)CC2)n1` it was 47.1 µM; in that of `O=S(=O)(N[C@@H]1CC[C@@H](CCn2cc(-c3ccccn3)nn2)O[C@H]1CO)c1cccc(Cl)c1`, 15.3 µM.
